Measured values taken from BigSolDB 2.1.

CCCCCCC1(CCCCCC)c2cc(Br)ccc2-c2ccc(Br)cc21
solubility (mole fraction)
Settings | 283.15 K | 293.15 K | 303.15 K | 313.15 K | 323.15 K
in 1,4-dioxane | – | 0.0466 | 0.0801 | 0.113 | 0.17
in THF | 0.0977 | 0.112 | 0.127 | 0.146 | 0.158
in acetonitrile | 0.000305 | 0.000473 | 0.000684 | 0.000954 | 0.0012
in chloroform | 0.0364 | 0.041 | 0.0483 | 0.0543 | 0.0613
in dichloromethane | 0.0468 | 0.0633 | 0.0807 | 0.0987 | 0.118
in ethanol | 0.00158 | 0.00182 | 0.00209 | 0.00233 | 0.00264
in ethyl acetate | 0.0433 | 0.0613 | 0.0873 | 0.114 | 0.144
in isopropanol | 0.000772 | 0.00117 | 0.00191 | 0.00293 | 0.00392
in methanol | 0.000142 | 0.000189 | 0.000293 | 0.000427 | 0.000582
in n-butanol | 0.00329 | 0.00586 | 0.00935 | 0.0127 | 0.0165
in n-hexane | 0.0382 | 0.0578 | 0.0907 | 0.123 | 0.163
in toluene | 0.0918 | 0.121 | 0.152 | 0.188 | 0.242
